Source: patent publication US20260250275A1, “HETEROARYL ENHANCERS OF THE PARTICULATE GUANYLYL CYCLASE RECEPTOR A” (University of Florida Research Foundation, Incorporated, priority 2022, published 2026)
Like-named read-outs stand apart in the source and are kept apart here. One block for each compound: values may come before it.

Tests used:
human GC-A = molecular target: T1, human GC-A (Homo sapiens, UniProt P16066); assay: cGMP potentiation (HTRF) in human GC-A overexpressing HEK293 cells with EC20 ANP; assay type: cell-based; details: for LLE (lipophilic ligand efficiency = EC50−cLogP): calculated from EC50 and cLogP; for Emax: HEK293, 100% = saturating ANP (10 nM), 0% = EC20 ANP
T1 construct: host or cells: HEK293
T1 sequence (P16066 33-1061): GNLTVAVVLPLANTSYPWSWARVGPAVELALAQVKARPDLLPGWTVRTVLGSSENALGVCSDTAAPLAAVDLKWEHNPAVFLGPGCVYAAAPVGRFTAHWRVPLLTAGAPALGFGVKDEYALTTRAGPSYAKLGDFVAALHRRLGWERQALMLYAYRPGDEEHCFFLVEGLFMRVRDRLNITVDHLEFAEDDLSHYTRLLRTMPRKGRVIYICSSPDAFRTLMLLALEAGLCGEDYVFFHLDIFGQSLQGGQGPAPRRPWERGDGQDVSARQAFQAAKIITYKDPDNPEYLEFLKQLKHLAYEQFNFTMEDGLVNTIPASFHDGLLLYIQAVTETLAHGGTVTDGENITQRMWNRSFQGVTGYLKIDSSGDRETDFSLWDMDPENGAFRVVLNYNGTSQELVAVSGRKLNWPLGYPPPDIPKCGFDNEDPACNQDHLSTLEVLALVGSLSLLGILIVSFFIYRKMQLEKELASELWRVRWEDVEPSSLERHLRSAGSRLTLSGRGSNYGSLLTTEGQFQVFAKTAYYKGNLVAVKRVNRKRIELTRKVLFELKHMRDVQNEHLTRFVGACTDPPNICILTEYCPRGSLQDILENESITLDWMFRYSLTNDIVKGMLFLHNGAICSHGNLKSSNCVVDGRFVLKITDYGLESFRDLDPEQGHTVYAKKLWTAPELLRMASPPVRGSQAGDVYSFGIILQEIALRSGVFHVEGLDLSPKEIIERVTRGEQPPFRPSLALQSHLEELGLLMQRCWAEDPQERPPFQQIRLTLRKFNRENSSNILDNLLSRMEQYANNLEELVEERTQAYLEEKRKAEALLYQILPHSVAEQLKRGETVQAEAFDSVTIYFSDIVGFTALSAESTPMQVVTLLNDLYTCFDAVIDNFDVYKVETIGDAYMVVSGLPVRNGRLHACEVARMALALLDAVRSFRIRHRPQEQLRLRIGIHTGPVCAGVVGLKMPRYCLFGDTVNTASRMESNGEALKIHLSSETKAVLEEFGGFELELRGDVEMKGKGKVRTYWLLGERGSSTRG
T1 sequence (P01160 124-151 partner limits assumed): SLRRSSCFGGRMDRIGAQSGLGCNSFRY

[1] = cited from earlier work
[2] = potentiation of cGMP in presence of EC20 ANP (20 pM), Tables 1-7, read-out: EC50

SMILES: N[C@@H]1CCC[C@H](C(=O)Nc2nc3c(F)cc(F)cc3s2)C1 [JUF-S12-001A]
EC50 (human GC-A; [2]): 700 to 3100 nM

SMILES: COc1ccc(-c2csc(NC(=O)C3CCCN(CCN(C)C)C3)n2)cc1 (centres unmarked) [JUF-S7-013]
LLE (lipophilic ligand efficiency = EC50−cLogP) (human GC-A): 2.69

SMILES: CN(C)CCN1CCCC(C(=O)Nc2nc3c(F)cc(F)cc3s2)C1 (centres unmarked) [MCUF-651]
Activity in vivo [1]: active in vivo
Oral bioavailability ([1]; in vivo, po): orally bioavailable

Results, then the compound that gave them:

LLE (lipophilic ligand efficiency = EC50−cLogP) (human GC-A): 2.51
SMILES: CN(C)CCN1CCCCC1C(=O)Nc1nc2c(F)cc(F)cc2s1 (centres unmarked) [JUF-S2-003]

Emax (human GC-A): 87 to 97%
SMILES: N[C@@H]1CCCC(C(=O)Nc2nc3c(F)cc(F)cc3s2)C1 (some centres unmarked) [JUF-S12-001A]

Emax values of internal control (FIG. 2) (human GC-A; titrated on each 384-test plate): 80-100 % response
EC50 (human GC-A; titrated on each 384-test plate, read-out: Acceptable EC50 values of internal control (FIG. 2)): 200 to 600 nM
SMILES: CN(C)CCN1CCCC(C(=O)Nc2nc3c(F)cc(F)cc3s2)C1 (centres unmarked) [MCUF 651, reference compound]

Emax (human GC-A): 91 to 96%
EC50 (human GC-A; [2]): 1500 to 2600 nM
SMILES: CN(C)C1CCN(CC(=O)Nc2nc3c(F)cc(F)cc3s2)CC1 [JUF-S10-004]

EC50 (human GC-A; [2]): > 5000 nM
SMILES: CN(C)CCN[C@@H]1CCC[C@@H](C(=O)Nc2nc3c(F)cc(F)cc3s2)C1 [JUF-S12-002]
